Values after ≈ are worked out from the molar mass of the structure shown.
Key:
[1] = test system: Pseudomonas aeruginosa 99; assay: Antibacterial MIC, standard serial dilution; assay type: cell-based; conditions: nutrient agar, 37° C., 17 hours, as free base
[2] = test system: Micrococcus flavus FDA 16; assay: Antibacterial MIC, standard serial dilution; assay type: cell-based; conditions: nutrient agar, 37° C., 17 hours, as free base
[3] = test system: Klebsiella pneumoniae 22#3038; assay: Antibacterial MIC, standard serial dilution; assay type: cell-based; conditions: nutrient agar, 37° C., 17 hours, as free base
[4] = test system: Escherichia coli K-12 C600 R135; assay: Antibacterial MIC, standard serial dilution; assay type: cell-based; conditions: nutrient agar, 37° C., 17 hours, as free base
[5] = test system: Escherichia coli JR66/W677; assay: Antibacterial MIC, standard serial dilution; assay type: cell-based; conditions: nutrient agar, 37° C., 17 hours, as free base
[6] = test system: Pseudomonas aeruginosa 21-75; assay: Antibacterial MIC, standard serial dilution; assay type: cell-based; conditions: nutrient agar, 37° C., 17 hours, as free base
[7] = test system: Shigella dysenteriae JS11910; assay: Antibacterial MIC, standard serial dilution; assay type: cell-based; conditions: nutrient agar, 37° C., 17 hours, as free base
[8] = test system: Pseudomonas aeruginosa A3; assay: Antibacterial MIC, standard serial dilution; assay type: cell-based; conditions: nutrient agar, 37° C., 17 hours, as free base
[9] = test system: Pseudomonas aeruginosa B-13; assay: Antibacterial MIC, standard serial dilution; assay type: cell-based; conditions: nutrient agar, 37° C., 17 hours, as free base
[10] = test system: Mycobacterium smegmatis ATCC 607; assay: Antibacterial MIC, standard serial dilution; assay type: cell-based; conditions: nutrient agar, 37° C., 17 hours, as free base
[11] = test system: Staphylococcus aureus FDA 209P; assay: Antibacterial MIC, standard serial dilution; assay type: cell-based; conditions: nutrient agar, 37° C., 17 hours, as free base
[12] = test system: Salmonella enteritidis 1891; assay: Antibacterial MIC, standard serial dilution; assay type: cell-based; conditions: nutrient agar, 37° C., 17 hours, as free base
Proteus rettgeri GN311 = assay: Antibacterial MIC, standard serial dilution; assay type: cell-based; conditions: nutrient agar, 37° C., 17 hours, as free base
[13] = test system: Escherichia coli K-12 ML1410; assay: Antibacterial MIC, standard serial dilution; assay type: cell-based; conditions: nutrient agar, 37° C., 17 hours, as free base
[14] = test system: Pseudomonas aeruginosa K-Ps 102; assay: Antibacterial MIC, standard serial dilution; assay type: cell-based; conditions: nutrient agar, 37° C., 17 hours, as free base
[15] = test system: Staphylococcus aureus Smith; assay: Antibacterial MIC, standard serial dilution; assay type: cell-based; conditions: nutrient agar, 37° C., 17 hours, as free base
[16] = test system: Escherichia coli K-12 J5R11-2; assay: Antibacterial MIC, standard serial dilution; assay type: cell-based; conditions: nutrient agar, 37° C., 17 hours, as free base
Proteus vulgaris 0X19 = assay: Antibacterial MIC, standard serial dilution; assay type: cell-based; conditions: nutrient agar, 37° C., 17 hours, as free base
Escherichia coli W677 = assay: Antibacterial MIC, standard serial dilution; assay type: cell-based; conditions: nutrient agar, 37° C., 17 hours, as free base
[17] = test system: Escherichia coli K-12 LA290 R56; assay: Antibacterial MIC, standard serial dilution; assay type: cell-based; conditions: nutrient agar, 37° C., 17 hours, as free base
mice = assay: Acute toxicity, intravenous administration in mice; assay type: in vivo
[18] = test system: Pseudomonas maltophilia GN 907; assay: Antibacterial MIC, standard serial dilution; assay type: cell-based; conditions: nutrient agar, 37° C., 17 hours, as free base
Escherichia coli NIHJ = assay: Antibacterial MIC, standard serial dilution; assay type: cell-based; conditions: nutrient agar, 37° C., 17 hours, as free base
[19] = test system: Pseudomonas aeruginosa ROS 134/PU21; assay: Antibacterial MIC, standard serial dilution; assay type: cell-based; conditions: nutrient agar, 37° C., 17 hours, as free base
Escherichia coli K-12 = assay: Antibacterial MIC, standard serial dilution; assay type: cell-based; conditions: nutrient agar, 37° C., 17 hours, as free base
Bacillus anthracis = assay type: cell-based; conditions: nutrient agar, 37° C., 17 hours, as free base
[20] = test system: Klebsiella pneumoniae PCI602; assay: Antibacterial MIC, standard serial dilution; assay type: cell-based; conditions: nutrient agar, 37° C., 17 hours, as free base
Serratia marcescens = assay: Antibacterial MIC, standard serial dilution; assay type: cell-based; conditions: nutrient agar, 37° C., 17 hours, as free base
Serratia sp. 4 = assay: Antibacterial MIC, standard serial dilution; assay type: cell-based; conditions: nutrient agar, 37° C., 17 hours, as free base
[21] = test system: Staphylococcus epidermidis 109; assay: Antibacterial MIC, standard serial dilution; assay type: cell-based; conditions: nutrient agar, 37° C., 17 hours, as free base
[22] = test system: Pseudomonas aeruginosa No. 12; assay: Antibacterial MIC, standard serial dilution; assay type: cell-based; conditions: nutrient agar, 37° C., 17 hours, as free base
[23] = test system: gram-negative and gram-positive bacteria; assay: Antibacterial activity overall (Table 1 spectrum); assay type: cell-based; conditions: in words
[24] = test system: Staphylococcus aureus Ap01; assay: Antibacterial MIC, standard serial dilution; assay type: cell-based; conditions: nutrient agar, 37° C., 17 hours, as free base
Sarcina lutea PCI 1001 = assay: Antibacterial MIC, standard serial dilution; assay type: cell-based; conditions: nutrient agar, 37° C., 17 hours, as free base
Providencia sp. 2991 = assay: Antibacterial MIC, standard serial dilution; assay type: cell-based; conditions: nutrient agar, 37° C., 17 hours, as free base
Serratia sp. SOU = assay: Antibacterial MIC, standard serial dilution; assay type: cell-based; conditions: nutrient agar, 37° C., 17 hours, as free base
[25] = test system: Bacillus cereus ATCC 10702; assay: Antibacterial MIC, standard serial dilution; assay type: cell-based; conditions: nutrient agar, 37° C., 17 hours, as free base
Escherichia coli JR225 = assay: Antibacterial MIC, standard serial dilution; assay type: cell-based; conditions: nutrient agar, 37° C., 17 hours, as free base
[26] = test system: Bacillus subtilis NRRL B-558; assay: Antibacterial MIC, standard serial dilution; assay type: cell-based; conditions: nutrient agar, 37° C., 17 hours, as free base
Salmonella typhi T-63 = assay: Antibacterial MIC, standard serial dilution; assay type: cell-based; conditions: nutrient agar, 37° C., 17 hours, as free base
Providencia sp. Pv16 = assay: Antibacterial MIC, standard serial dilution; assay type: cell-based; conditions: nutrient agar, 37° C., 17 hours, as free base
[27] = test system: Pseudomonas aeruginosa TI-13; assay: Antibacterial MIC, standard serial dilution; assay type: cell-based; conditions: nutrient agar, 37° C., 17 hours, as free base
[28] = test system: Escherichia coli K-12 R388; assay: Antibacterial MIC, standard serial dilution; assay type: cell-based; conditions: nutrient agar, 37° C., 17 hours, as free base
[29] = test system: Corynebacterium bovis 1810; assay: Antibacterial MIC, standard serial dilution; assay type: cell-based; conditions: nutrient agar, 37° C., 17 hours, as free base
[30] = test system: Pseudomonas aeruginosa H9; assay: Antibacterial MIC, standard serial dilution; assay type: cell-based; conditions: nutrient agar, 37° C., 17 hours, as free base
[31] = test system: Bacillus subtilis PCI 219; assay: Antibacterial MIC, standard serial dilution; assay type: cell-based; conditions: nutrient agar, 37° C., 17 hours, as free base
[32] = test system: Pseudomonas aeruginosa GN315; assay: Antibacterial MIC, standard serial dilution; assay type: cell-based; conditions: nutrient agar, 37° C., 17 hours, as free base
[33] = test system: Pseudomonas aeruginosa PST1; assay: Antibacterial MIC, standard serial dilution; assay type: cell-based; conditions: nutrient agar, 37° C., 17 hours, as free base
[34] = test system: Escherichia coli K-12 ML1629; assay: Antibacterial MIC, standard serial dilution; assay type: cell-based; conditions: nutrient agar, 37° C., 17 hours, as free base
[35] = test system: Escherichia coli K-12 ML1410 R81; assay: Antibacterial MIC, standard serial dilution; assay type: cell-based; conditions: nutrient agar, 37° C., 17 hours, as free base
Proteus rettgeri GN466 = assay: Antibacterial MIC, standard serial dilution; assay type: cell-based; conditions: nutrient agar, 37° C., 17 hours, as free base
[36] = test system: Pseudomonas aeruginosa H11; assay: Antibacterial MIC, standard serial dilution; assay type: cell-based; conditions: nutrient agar, 37° C., 17 hours, as free base
[37] = test system: Escherichia coli K-12 LA290 R64; assay: Antibacterial MIC, standard serial dilution; assay type: cell-based; conditions: nutrient agar, 37° C., 17 hours, as free base
Pseudomonas aeruginosa = conditions: in words; earlier filings; cited from earlier work

## CNCC1CCC(N)C(OC2C(N)CCC(N(C)C(=O)CN)C2O)O1 (stereo not shown) [DB, 3-demethoxyistamycin B]
[1]
  MIC: 25 µg/mL (≈ 69.5 µM)
[2]
  MIC: 3.13 µg/mL (≈ 8.71 µM)
[3]
  MIC: 1.56 µg/mL (≈ 4.34 µM)
[4]
  MIC: 0.78 µg/mL (≈ 2.17 µM)
[5]
  MIC: 0.78 µg/mL (≈ 2.17 µM)
[6]
  MIC: 50 µg/mL (≈ 139 µM)
[7]
  MIC: 1.56 µg/mL (≈ 4.34 µM)
[8]
  MIC: 0.39 µg/mL (≈ 1.08 µM)
[9]
  MIC: 50 µg/mL (≈ 139 µM)
[10]
  MIC: 0.39 µg/mL (≈ 1.08 µM)
[11]
  MIC: < 0.20 µg/mL
[12]
  MIC: 1.56 µg/mL (≈ 4.34 µM)
Proteus rettgeri GN311
  MIC: 0.39 µg/mL (≈ 1.08 µM)
[13]
  MIC: 1.56 µg/mL (≈ 4.34 µM)
[14]
  MIC: 12.5 µg/mL (≈ 34.8 µM)
[15]
  MIC: 0.20 µg/mL (≈ 0.556 µM)
[16]
  MIC: 0.78 µg/mL (≈ 2.17 µM)
Proteus vulgaris 0X19
  MIC: 0.39 µg/mL (≈ 1.08 µM)
Escherichia coli W677
  MIC: 0.39 µg/mL (≈ 1.08 µM)
[17]
  MIC: 0.39 µg/mL (≈ 1.08 µM)
mice; mice, intravenous, in words
  acute toxicity: low toxicity
mice; mouse, in vivo, iv, 336 h
  tolerated dose (all treated mice): 100 mg/kg
[18]
  MIC: 100 µg/mL (≈ 278 µM)
Escherichia coli NIHJ
  MIC: 0.39 µg/mL (≈ 1.08 µM)
[19]
  MIC: 50 µg/mL (≈ 139 µM)
Escherichia coli K-12
  MIC: 0.78 µg/mL (≈ 2.17 µM)
Bacillus anthracis
  MIC: 0.39 µg/mL (≈ 1.08 µM)
[20]
  MIC: 0.78 µg/mL (≈ 2.17 µM)
Serratia marcescens
  MIC: 0.78 µg/mL (≈ 2.17 µM)
Serratia sp. 4
  MIC: 12.5 µg/mL (≈ 34.8 µM)
[21]
  MIC: < 0.20 µg/mL
[22]
  MIC: 12.5 µg/mL (≈ 34.8 µM)
[23]
  antibacterial activity: the most active compound
[24]
  MIC: 0.39 µg/mL (≈ 1.08 µM)
Sarcina lutea PCI 1001
  MIC: < 0.20 µg/mL
Providencia sp. 2991
  MIC: 1.56 µg/mL (≈ 4.34 µM)
Serratia sp. SOU
  MIC: 3.13 µg/mL (≈ 8.71 µM)
[25]
  MIC: 1.56 µg/mL (≈ 4.34 µM)
Escherichia coli JR225
  MIC: 0.78 µg/mL (≈ 2.17 µM)
[26]
  MIC: < 0.20 µg/mL
Salmonella typhi T-63
  MIC: < 0.20 µg/mL
Providencia sp. Pv16
  MIC: 0.78 µg/mL (≈ 2.17 µM)
[27]
  MIC: 6.25 µg/mL (≈ 17.4 µM)
[28]
  MIC: 0.39 µg/mL (≈ 1.08 µM)
[29]
  MIC: < 0.20 µg/mL
[30]
  MIC: 12.5 µg/mL (≈ 34.8 µM)
[31]
  MIC: < 0.20 µg/mL
[32]
  MIC: 6.25 µg/mL (≈ 17.4 µM)
[33]
  MIC: 12.5 µg/mL (≈ 34.8 µM)
[34]
  MIC: 0.78 µg/mL (≈ 2.17 µM)
[35]
  MIC: 0.78 µg/mL (≈ 2.17 µM)
Proteus rettgeri GN466
  MIC: 0.39 µg/mL (≈ 1.08 µM)
[36]
  MIC: 25.0 µg/mL (≈ 69.5 µM)
[37]
  MIC: 0.78 µg/mL (≈ 2.17 µM)

## CN(C(=O)CN)C1C(O)CC(N)C(OC2OC(CN)CCC2N)C1O (stereo not shown) [di-N^6',O^3 -demethylistamycinA]
Pseudomonas aeruginosa
  antibacterial activity against Pseudomonas aeruginosa: significantly higher than the parent istamycin A

From patent publication US4479943A, “3-Demethoxyistamycin B, the 2"-N-formimidoyl derivative thereof and pharmaceutical composition containing same” (Zaidan Hojin Biseibutsu Kagaku Kenkyu Kai, priority 1982, dated 1984)
